Source: patent US20070093520A1, “Method of treatment of diarrhea-predominant irritable bowel syndrome in a subject” (priority 2005, published 2007)

Test system: diarrhea-predominant IBS subjects
Assay type: in vivo, human
Procedure: The study was performed in approximately 150 study centers. Approximately 1600 eligible subjects were to be given cilansetron 2 mg TID. At Visit 1, pre-treatment assessments were conducted. […] Subjects were to return to the study site one month later for Visit 3 (Day 31) for their first interim assessment. […] All subjects who discontinued from the study were to have the same post-study assessments required at Visit 7 performed at their early termination visit. […]
Stool specimens were analyzed at every visit for occult blood. An independent GERB had been established to provide advice on GI AEs during the course of the study.
Adverse events were assessed at Baseline, at each clinic visit, and at the end of the study (Month 12 or the early termination visit). All AEs, which occurred during the study were followed up in accordance with good medical practice until resolved or judged no longer clinically significant, or if a condition was chronic, until fully characterized. Adverse events could occur in the specified follow-up period and, regardless of the interval since the last administration of the study medication, were treated in the same manner as an AE which occurred during the treatment with study medication. Each AE was evaluated for duration, severity, seriousness, and causal relationship to the investigational drug. The action taken and the outcome were also recorded.
Specifically, subjects who were lost to follow-up and had no post-Baseline contact with the site were excluded from the Safety population. The subjects who discontinued from the study due to lost to follow-up were identified based on the information collected on the study termination CRF page.
After the pretreatment assessment at Visit 1 (Days […] to −3), subjects were to return to the study site for a Baseline assessment and start the treatment at Visit 2 (Day 1).
For the by time-interval analyses of disposition, prevalence of AEs, and of markedly abnormal and predefined changes in laboratory values, vital signs, and ECGs, the following interval windows were used:
Adverse events that were already present prior to the first dose of cilansetron study medication but increased in severity afterwards were considered as treatment-emergent.
The 5% cutoff point was based on the incidence within higher level terms.
Subjects were counted at most once for each primary system organ class and preferred term. Serious AEs that resolved prior to receiving study medication or occurred more than 30 days after the last dose of study medication were not included in the incidence tables. A listing of all SAEs is presented; SAEs with onset prior to receiving study medication or more than 30 days after discontinuation of study medication were flagged. The listing presents lower level term and preferred term of the SAE, severity, action taken, outcome, and relationship of the SAE, start and stop date of the SAE, study day of onset of the SAE, age, race, and sex.

[1] = 2 mg, Safety Population, 3008, system organ class
[2] = 2 mg, Safety Population, 3008, under Blood and Lymphatic System Disorders
[3] = 2 mg, Safety Population, 3008, under Congenital, Familial and Genetic Disorders
[4] = 2 mg, Safety Population, 3008, under Ear and Labyrinth Disorders
[5] = 2 mg, Safety Population, 3008, under Endocrine Disorders
[6] = 2 mg, Safety Population, 3008, under Eye Disorders
[7] = 2 mg, Safety Population, 3008, under Hepatobiliary Disorders
[8] = 2 mg, Safety Population, 3008, under Immune System Disorders
[9] = 2 mg, Safety Population, 3008, under Neoplasms Benign, Malignant and Unspecified

Cc1nccn1C[C@H]1CCc2c(c3cccc4c3n2CCC4)C1=O [cilansetron, (R)-(−)-4,5,6,8,9,10-hexahydro-10-[(2-methyl-1H-imidazol-1-yl)methyl]-11H-pyrido-[3,2,1-jk]-carbazol-11-one]
TEAE incidence: Influenza Viral Infections: 51 (4%) n (%)
TEAE incidence: Scrotal Disorders NEC* (2 mg, Safety Population, 3008): 1 (<1%) n (%)
TEAE incidence: Scrotal Swelling* (2 mg, Safety Population, 3008): 1 (<1%) n (%)
TEAE incidence: Vaginal Haemorrhage* (2 mg, Safety Population, 3008): 1 (<1%) n (%)
TEAE incidence: Vulvovaginal Disorders NEC* (2 mg, Safety Population, 3008): 1 (<1%) n (%)
TEAE incidence: Blood and Lymphatic System Disorders [1]: 13 (<1%) n (%)
TEAE incidence: Congenital, Familial and Genetic Disorders [1]: 3 (<1%) n (%)
TEAE incidence: Ear and Labyrinth Disorders [1]: 22 (2%) n (%)
TEAE incidence: Endocrine Disorders [1]: 7 (<1%) n (%)
TEAE incidence: Eye Disorders [1]: 18 (1%) n (%)
TEAE incidence: Hepatobiliary Disorders [1]: 13 (<1%) n (%)
TEAE incidence: Immune System Disorders [1]: 23 (2%) n (%)
TEAE incidence: Neoplasms Benign, Malignant and Unspecified (Incl Cysts and Polyps) [1]: 17 (1%) n (%)
TEAE incidence: Pregnancy, Puerperium and Perinatal Conditions [1]: 2 (<1%) n (%)
TEAE incidence: Social Circumstances [1]: 3 (<1%) n (%)
TEAE incidence: Surgical and Medical Procedures [1]: 2 (<1%) n (%)
TEAE incidence: Vascular Disorders [1]: 32 (2%) n (%)
TEAE incidence: Anaemia Deficiencies [2]: 1 (<1%) n (%)
TEAE incidence: Anaemia NOS [2]: 5 (<1%) n (%)
TEAE incidence: Anaemia Vitamin B12 Deficiency [2]: 1 (<1%) n (%)
TEAE incidence: Anaemias NEC [2]: 7 (<1%) n (%)
TEAE incidence: Anisocytosis [2]: 1 (<1%) n (%)
TEAE incidence: Eosinophilia [2]: 2 (<1%) n (%)
TEAE incidence: Hypochromic Anaemia [2]: 1 (<1%) n (%)
TEAE incidence: Leukocytoses NEC [2]: 4 (<1%) n (%)
TEAE incidence: Leukocytosis [2]: 2 (<1%) n (%)
TEAE incidence: Leukopenia NOS [2]: 2 (<1%) n (%)
TEAE incidence: Leukopenias NEC [2]: 2 (<1%) n (%)
TEAE incidence: Neutropenia [2]: 1 (<1%) n (%)
TEAE incidence: Neutropenias [2]: 1 (<1%) n (%)
TEAE incidence: Neutrophilia [2]: 2 (<1%) n (%)
TEAE incidence: Normochromic Normocytic Anaemia [2]: 1 (<1%) n (%)
TEAE incidence: Poikilocytosis [2]: 1 (<1%) n (%)
TEAE incidence: Red Blood Cell Abnormal Findings NEC [2]: 1 (<1%) n (%)
TEAE incidence: Secondary Thrombocythaemias [2]: 1 (<1%) n (%)
TEAE incidence: Thrombocythaemia [2]: 1 (<1%) n (%)
TEAE incidence: Congenital Claw Toe [3]: 1 (<1%) n (%)
TEAE incidence: Musculoskeletal and Connective Tissue Disorders of Limbs Congenital [3]: 1 (<1%) n (%)
TEAE incidence: Pigmented Naevus [3]: 2 (<1%) n (%)
TEAE incidence: Skin and Subcutaneous Tissue Disorders Congenital NEC [3]: 2 (<1%) n (%)
TEAE incidence: Ear Disorders NEC [4]: 3 (<1%) n (%)
TEAE incidence: Ear Pain [4]: 3 (<1%) n (%)
TEAE incidence: Hyperacusia [4]: 1 (<1%) n (%)
TEAE incidence: Hyperacusis [4]: 1 (<1%) n (%)
TEAE incidence: Inner Ear Disorder NOS [4]: 1 (<1%) n (%)
TEAE incidence: Inner Ear Disorders NEC [4]: 1 (<1%) n (%)
TEAE incidence: Inner Ear Signs and Symptoms [4]: 18 (1%) n (%)
TEAE incidence: Tinnitus [4]: 8 (<1%) n (%)
TEAE incidence: Vertigo [4]: 10 (<1%) n (%)
TEAE incidence: Vertigo Positional [4]: 1 (<1%) n (%)
TEAE incidence: Acquired Hypothyroidism [5]: 3 (<1%) n (%)
TEAE incidence: Acute and Chronic Thyroiditis [5]: 1 (<1%) n (%)
TEAE incidence: Goitre [5]: 2 (<1%) n (%)
TEAE incidence: Thyroid Disorders NEC [5]: 2 (<1%) n (%)
TEAE incidence: Thyroid Hyperfunction Disorders [5]: 2 (<1%) n (%)
TEAE incidence: Thyroid Hypofunction Disorders [5]: 3 (<1%) n (%)
TEAE incidence: Thyroid Neoplasms [5]: 1 (<1%) n (%)
TEAE incidence: Thyroid Nodule [5]: 1 (<1%) n (%)
TEAE incidence: Thyroiditis NOS [5]: 1 (<1%) n (%)
TEAE incidence: Thyrotoxicosis [5]: 2 (<1%) n (%)
TEAE incidence: Amaurosis Fugax [6]: 1 (<1%) n (%)
TEAE incidence: Blindness (Excl Colour Blindness) [6]: 1 (<1%) n (%)
TEAE incidence: Cataract Unilateral [6]: 1 (<1%) n (%)
TEAE incidence: Cataracts (Excl Congenital) [6]: 1 (<1%) n (%)
TEAE incidence: Conjunctival Haemorrhage [6]: 1 (<1%) n (%)
TEAE incidence: Conjunctival and Corneal Bleeding and Vascular Disorders [6]: 1 (<1%) n (%)
TEAE incidence: Conjunctivitis [6]: 1 (<1%) n (%)
TEAE incidence: Dry Eye NOS [6]: 1 (<1%) n (%)
TEAE incidence: Eye Irritation [6]: 1 (<1%) n (%)
TEAE incidence: Eye Pain [6]: 2 (<1%) n (%)
TEAE incidence: Eyelid Oedema [6]: 2 (<1%) n (%)
TEAE incidence: Glaucoma NOS [6]: 1 (<1%) n (%)
TEAE incidence: Glaucomas (Excl Congenital) [6]: 1 (<1%) n (%)
TEAE incidence: Lacrimal Disorders [6]: 1 (<1%) n (%)
TEAE incidence: Ocular Disorders NEC [6]: 2 (<1%) n (%)
TEAE incidence: Ocular Sensation Disorders [6]: 1 (<1%) n (%)
TEAE incidence: Partial Vision Loss [6]: 2 (<1%) n (%)
TEAE incidence: Photophobia [6]: 1 (<1%) n (%)
TEAE incidence: Retinal Bleeding and Vascular Disorders (Excl Retinopathy) [6]: 1 (<1%) n (%)
TEAE incidence: Retinal Detachment [6]: 1 (<1%) n (%)
TEAE incidence: Retinal Structural Change, Deposit and Degeneration [6]: 1 (<1%) n (%)
TEAE incidence: Retinal Vascular Disorder NOS [6]: 1 (<1%) n (%)
TEAE incidence: Retinitis NOS [6]: 1 (<1%) n (%)
TEAE incidence: Vision Abnormal NOS Exacerbated [6]: 1 (<1%) n (%)
TEAE incidence: Vision Blurred [6]: 1 (<1%) n (%)
TEAE incidence: Visual Disorders NEC [6]: 3 (<1%) n (%)
TEAE incidence: Visual Disturbance NOS [6]: 3 (<1%) n (%)
TEAE incidence: Biliary Dyskinesia [7]: 1 (<1%) n (%)
TEAE incidence: Cholecystitis NOS [7]: 2 (<1%) n (%)
TEAE incidence: Cholecystitis and Cholelithiasis [7]: 3 (<1%) n (%)
TEAE incidence: Cholelithiasis [7]: 1 (<1%) n (%)
TEAE incidence: Cholestasis and Jaundice [7]: 1 (<1%) n (%)
TEAE incidence: Gallbladder Disorders NEC [7]: 1 (<1%) n (%)
TEAE incidence: Hepatic Cyst NOS [7]: 1 (<1%) n (%)
TEAE incidence: Hepatic Disorder NOS [7]: 2 (<1%) n (%)
TEAE incidence: Hepatic and Hepatobiliary Disorders NEC [7]: 2 (<1%) n (%)
TEAE incidence: Hepatitis NOS [7]: 3 (<1%) n (%)
TEAE incidence: Hepatobiliary Neoplasms Benign [7]: 1 (<1%) n (%)
TEAE incidence: Hepatocellular Damage and Hepatitis NEC [7]: 5 (<1%) n (%)
TEAE incidence: Jaundice Cholestatic [7]: 1 (<1%) n (%)
TEAE incidence: Liver Fatty [7]: 2 (<1%) n (%)
TEAE incidence: Allergic Conditions NEC [8]: 8 (<1%) n (%)
TEAE incidence: Allergies to Foods, Food Additives, Drugs and Other Chemicals [8]: 3 (<1%) n (%)
TEAE incidence: Atopic Disorders [8]: 12 (<1%) n (%)
TEAE incidence: Drug Hypersensitivity [8]: 3 (<1%) n (%)
TEAE incidence: Hypersensitivity NOS [8]: 7 (<1%) n (%)
TEAE incidence: Seasonal Allergy [8]: 12 (<1%) n (%)
TEAE incidence: Benign Ureteric Neoplasm NOS [9]: 1 (<1%) n (%)
TEAE incidence: Bladder Neoplasm NOS [9]: 1 (<1%) n (%)
TEAE incidence: Breast Cancer NOS* [9]: 1 (<1%) n (%)
TEAE incidence: Breast and Nipple Neoplasms Malignant* [9]: 1 (<1%) n (%)
TEAE incidence: Cartilage Neoplasms Benign [9]: 1 (<1%) n (%)
TEAE incidence: Enchondromatosis [9]: 1 (<1%) n (%)
